Where two headings read alike, the source gives them in different places.
Columns and labels:
[1] = tested on: diet-induced acute pancreatitis; details: mice; Manabe et al; cited from earlier work
[2] = tested on: blood platelet aggregation; details: cited from earlier work
thrombus = details: cited from earlier work
[3] = tested on: isolate perfused cat liver; details: Araki et al; cited from earlier work
endotoxin shock = details: dog; Fletcher et al; cited from earlier work
[4] = tested on: arachidonic acid-induced blood platelet aggregation; details: human; cited from earlier work
artery = details: cited from earlier work
[5] = tested on: endotoxin-induced lung injury; details: sheep; Demling et al; cited from earlier work
[6] = tested on: carbon tetrachloride-induced liver cell necrosis; details: Stachur et al; cited from earlier work
[7] = tested on: acute galactosamine-induced liver damage; details: Stachur et al; cited from earlier work
[8] = tested on: p-acetoamidophenol-induced liver damage; assay: Effect on p-acetoamidophenol-induced liver damage (liver glutathione decrease type); format: in vivo, Male Wistar rats; details: p.o., 50 μg/kg; blood after 24 hr
Experimental: Effect on p-acetoamidophenol-induced liver damage (liver glutathione decrease type)
Male Wistar rats weighing 180-220 g were used. After the rats had fasted for 18 hr, p-acetoamidophenol (2.5 g/kg) was given orally to them. The compound under test was administered orally 30 min before and 6 and 12 hr after administration of p-acetoamidophenol and blood was collected after 24 hr. Plasma GOT and GPT activities were determined in the manner described in experiment 1 and the results given in Table 4 show the inhibition rate compared with controls (calculation by the formula shown in Experiment 1)

[9] = tested on: carbon tetrachloride (CCl4) induced liver damage; assay: Effect on carbon tetrachloride (CCl4) induced liver damage (liver cell necrosis type); format: in vivo, Male Wistar rats; details: for inhibition in vivo at 0.02 mg/kg: Rattus norvegicus, sc, 24 h, s.c., 20 μg/kg
Experimental: Effect on carbon tetrachloride (CCl4) induced liver damage (liver cell necrosis type)
Male Wistar rats weighing 180-220 g were used. Rats were dosed intraperitoneally with CCl4 dissolved in olive oil (5%, w/v) at a volume of 500 μl/kg after 18 hr starvation. The compound under test was administered orally (p.o.) or subcutaneously (s.c.) 6 and 12 hr after CCl4 injection in rats and blood was collected after 24 hr. Plasma glutamic oxaloacetic transaminase (GOT) and glutamic pyruvic transaminase (GPT) activities were determined by ultraviolet absorbance methods (optimised method based on the recommendations of the Deutsche Gesellschaft fur Klinische Chemie). The effects of the compounds tested were assessed by the inhibition rate in comparison with controls. Inhibition rate was calculated by the following formula. [formula] The results obtained are shown in the following Tables 1A and 1B for compounds of the general formula: [drawing 10] wherein R, R^1 and --X--Y--Z-- have the meanings indicated.
In Tables 1A, 1B and 2 to 5 hereinafter the dose shown in the amount given at each administration of the compound under test.

[10] = tested on: α-naphthylisothiocyanate-induced liver damage; assay: Effect on α-naphthylisothiocyanate-induced liver damage (cholangioatresia type); format: in vivo, Male Wistar rats; details: p.o., blood after 24 hr
Experimental: Effect on α-naphthylisothiocyanate-induced liver damage (cholangioatresia type)
Male Wistar rats weighing 190-220 g were used. After rats had fasted for 18 hr, α-naphthylisothiocyanate (ANIT) dissolved in olive oil (1.5% w/v) was given orally to them at 30 mg/kg body weight. The compound under test was administered orally 30 min before and 6 and 12 hr after administration of ANIT and blood was collected after 24 hr. Plasma GOT, GPT and bilirubin activities were determined and the results given in Table 5 show the inhibition rate compared with controls (calculation by the formula shown in Experiment 1).

[11] = tested on: alcohol-induced acute liver damage; assay: Effect on alcohol-induced acute liver damage; format: in vivo, Male Wistar rats; details: p.o., 50 μg/kg; blood after 24 hr
Experimental: Effect on alcohol-induced acute liver damage
Male Wistar rats weighing 180-220 g were used. After the rats had fasted for 18 hr, 50% v/v ethanol solution was given orally to them at a volume of 12 ml/kg. The compound under test was administered orally 30 min before and 2 and 8 hr after administration of ethanol and blood was collected after 24 hr. Plasma GOT and GPT activities were determined in the manner described in Experiment 1. Effects were shown by the inhibition rate compared with controls (calculation by the formula shown in Experiment 1).

Acute toxicity test = details: mouse, in vivo; oral, mice observed for 14 days
Experimental: Male JCL-ICR mice (non SPF mice) from 7 weeks of age were used. The compound under test was dissolved in 5% v/v ethanol containing 0.4% w/v Tween 80 (Tween is a registered trademark) and administered orally to the mice. […] The deaths observed were all within 72 hrs after treatment.

[12] = tested on: ethionine-induced acute pancreatitis; assay: Effect on ethionine-induced acute pancreatitis; format: in vivo, Male TCL-ICR mice; details: s.c., 5 μg/kg
Experimental: Effect on ethionine-induced acute pancreatitis
Male TCL-ICR mice from 4 weeks of age were used. After normal feeding the mice were given a choline-deficient diet (CD diet) for 2 days. Further after having fasted for 24 hr, they were given a choline-deficient diet containing 5% DL-ethionine (CDE diet) for 2 days, counted as days 1 and 2. The mice were then given the CD diet for 1 day and thereafter fed normally. Compound number 6 was administered subcutaneously to them at 5 μg/kg, twice daily, during the CDE diet on days 1 and 2, and then administered in the same manner once daily on days 3, 4 and 5. The effect of the compound under test on the survival rate at day 9 was determined. Further details of the test method appear in Gastroenterology, 78, 777 (1980).

[13] = tested on: D(+)-galactosamine hydrochloride-induced liver damage; assay: Effect on D(+)-galactosamine hydrochloride-induced liver damage (hepatitis type); format: in vivo, Male Wistar rats; details: p.o., 100 μg/kg
Experimental: Effect on D(+)-galactosamine hydrochloride-induced liver damage (hepatitis type)
Male Wistar rats weighing 180-220 g were used. After the rats had fasted for 18 hr, 250 mg/kg galactosamine hydrochloride was administered to them intraperitoneally three times at 4 hr intervals. The compound under test was administered orally 6, 12, 18, 24, 30, 36, 42 and 48 hr after the dose of D(+)-galactosamine hydrochloride and blood was collected after 36, 48 and 54 hr. Plasma GOT and GPT activities were determined in the manner described in Experiment 1 and the effects were shown by the inhibition rate compared with controls (calculation by the formula shown in Experiment 1).

SMILES: CCCCC[C@H](O)/C=C/[C@H]1[C@H](O)CC(=O)[C@@H]1C/C=C\CCCC(=O)O [PGE2]
- effect against diet-induced acute pancreatitis [1]: effective

SMILES: CCCCC[C@H](O)/C=C/[C@H]1[C@H](O)CC(=O)[C@@H]1CCCCCCC(=O)O [PGE1, Prostaglandin E1]
- effect on blood platelet aggregation [2]: inhibits
- effect on thrombus (thrombus): removes the thrombus and prevents thrombosis

SMILES: CCCCC[C@H](O)/C=C/[C@@H]1[C@H]2C/C(=C/CCCC(=O)O)O[C@H]2C[C@H]1O [PGI2, (5Z,13E)-(9α,11α,15S)-6,9-epoxy-11, 15-dihydroxyprosta-5,13-dienoic acid]
- effect on hypoxia in the isolate perfused liver [3]: prevents and is useful in treating
- effect on endotoxin shock (endotoxin shock): prevents and is useful in treating
- effect on arachidonic acid-induced blood platelet aggregation [4]: strongly inhibits
- activity on the artery (artery): relaxing activity
- effect on endotoxin-induced lung injury [5]: prevents and is useful in treating

SMILES: CCCCC(C)(C)[C@H](O)/C=C/[C@H]1[C@H](O)CC(=O)[C@@H]1C/C=C\CCCC(=O)O [16,16-dimethyl-PGE2]
- effect on carbon tetrachloride-induced liver cell necrosis [6]: prevents
- effect on acute galactosamine-induced liver damage [7]: prevents

SMILES: CCCC1CCC([C@H](O)/C=C/[C@H]2[C@H](O)CC(=O)[C@@H]2CC(=O)CCCCC(=O)OC)C1 (single isomer, unassigned) [Compound 6, 15-(3-Propylcyclopentyl)-16,17,18,19,20-pentanor-6-oxo-PGE1 methyl ester]
- inhibition GOT [8]: 33.2%
- inhibition GPT [8]: 60.4%
- inhibition in vivo at 0.02 mg/kg ([9]; plasma GOT after 24 hr, read-out: inhibition rate GOT): 54.1%
- inhibition in vivo at 0.02 mg/kg ([9]; plasma GPT after 24 hr, read-out: inhibition rate GPT): 43.2%
- inhibition rate GOT ([9]; p.o., 100 μg/kg, plasma GOT after 24 hr): 71.3%
- inhibition rate GPT ([9]; p.o., 100 μg/kg, plasma GPT after 24 hr): 67.5%
- inhibition GOT ([10]; 20 μg/kg): 14.6%
- inhibition GPT ([10]; 20 μg/kg): 5.4%
- inhibition bilirubin ([10]; 20 μg/kg): 18.2%
- inhibition GOT ([10]; 50 μg/kg): 44.6%
- inhibition GPT ([10]; 50 μg/kg): 49.8%
- inhibition bilirubin ([10]; 50 μg/kg): 24.9%
- inhibition GOT ([10]; 100 μg/kg): 67.8%
- inhibition GPT ([10]; 100 μg/kg): 63.6%
- inhibition bilirubin ([10]; 100 μg/kg): 50.5%
- inhibition rate GOT [11]: 24.5%
- inhibition rate GPT [11]: 35.8%
- LD50 at 336 h (Acute toxicity test): 10 to 20 mg/kg
- protection against death at day 9 from CDE diet [12]: significant protection against death
- treated mice dead at day 9 ([12]; twice daily days 1-2, once daily days 3-5, untreated control 12 of 16 dead): 3 of 16
- inhibition rates GOT 36 hr after ([13]; 36 hr): 37.2%
- inhibition rates GPT 36 hr after ([13]; 36 hr): 29.4%
- inhibition rates GOT 48 hr after ([13]; 48 hr): 46.3%
- inhibition rates GPT 48 hr after ([13]; 48 hr): 38.2%
- inhibition rates GOT 54 hr after ([13]; 54 hr): 39.1%
- inhibition rates GPT 54 hr after ([13]; 54 hr): 39.1%

Reference: patent US4464388A, “Use of prostaglandin analogues to treat cytodamage” (priority 1982, dated 1984)
